From paper PMC12431657, “Discovery and mechanistic insights of dibenzoylmethane as a broad spectrum inhibitor of coronavirus” (PLOS Pathogens, 2025)
Where “and” joins values, the source holds several entries; their conditions need not be identical. Equal values may be shown once.

Assays:
[1] = test system: HCoV-OC43; test: Immunoplaque assay, viral titres of organs and tissues of infected mice; assay type: in vivo, BALB/c suckling mice
Protocol: (§1) Next, we characterized the therapeutic efficacy of the DBM in vivo. In this experiment, randomized 5–6-day-old suckling BALB/c mice were orally treated with DBM at concentrations of 500, 200, and 100 mpk 2 hours after being intranasally challenged with HCoV-OC43. Menstruum and VV116 were used as negative and positive controls, respectively. All the mice were sacrificed on Day 5 for organ and sample collection (Fig 4A). The body weight changes of the mice were continuously monitored during the trial. Infection with HCoV-OC43 led to body weight loss in the vehicle-treated mice on Day 5 (Fig 4B). […] The number of viral RNA copies from the brain, spinal cord, lungs, and kidneys were analysed via qRT-PCR, which targeted the HCoV-OC43 nucleocapsid gene sequence. On Day 5, the number of viral RNA copies in the vehicle-treated group reached approximately 10^12 copies in the brain, 10^9 copies in the spinal cord, 10^8 copies in the lungs, and 10^6 copies in the kidney (Fig 4C). In the mice treated with DBM at 500 mpk, the number of viral RNA copies within these organs and tissues was reduced by 1–3 logs compared with the vehicle-treated group. […] Sections of mouse brains, spinal cords, lungs, and kidneys were subjected to immunofluorescence staining with antibodies targeting HCoV-OC43 nucleocapsid proteins.
(§2) Fig 4 In vivo antiviral efficacy of DBM in 5-day-old BALB/c suckling mice infected with HCoV-OC43. A) Schematic of the experimental design for evaluating DBM in suckling mice. Each group consisted of 5-6 suckling mice. The schematic was created by the authors using Adobe Illustrator 2022. B) Body weight changes of mice during the experiment. Body weights were recorded daily and all mice were euthanised on the fifth day after infection. C) Viral RNA copies in the brains, spinal cords, lungs, and kidneys of mice collected on Day 5. After grinding and centrifuging the samples with DMEM, viral copies from the supernatants were tested by qRT-PCR. D) Viral titres in homogenised organs and tissues collected from mice on Day 5. E) Immunofluorescence staining of brain and lung sections from mice treated with different regimens. HCoV-OC43 nucleocapsid proteins were detected by immunofluorescence (green). Cell nuclei were stained with DAPI (blue). Data were statistically analyzed with Student’s T test. *: p ≤ 0.05, **: p ≤ 0.01, ***: p ≤ 0.001, ****: p ≤ 0.0001; ns, not significant. The experiments were repeated three times independently with similar results. […] No numeric values are printed in any panel, and nothing was read off the bars, points or curves.
RD cells were preseeded onto 24-well plates and incubated at 37 °C for 24 hours until they reached 90% confluence. The supernatants from the homogenized organs and tissues were serially diluted 10-fold in DMEM. Subsequently, 50 μL of each dilution was added to the wells. Following a 1-hour incubation at 37 °C, the inoculum was removed, and 200 μL of overlay medium (DMEM containing 2% FBS and 1.5% carboxymethyl cellulose) was added to the wells. Four days postinfection, the cells were fixed with 4% paraformaldehyde for 2 hours, followed by three washes with phosphate-buffered saline (PBS). The fixed cells were then permeabilized with 0.5% Triton X-100 for 30 minutes and blocked with 5% bovine serum albumin (BSA) for 30 minutes at room temperature. The cells were subsequently incubated with anti-HCoV-OC43 nucleocapsid protein rabbit serum (ABclonal, SA00001–2) as the primary antibody and HRP-conjugated anti-rabbit IgG (Proteintech) as the secondary antibody, followed by staining with a DAB staining kit (TIANGEN, PA110).

[2] = test system: HCoV-OC43; test: In vivo efficacy of DBM against HCoV-OC43 in suckling mice (body weight, viral RNA copies, immunofluorescence, H&E); design: species or system BALB/c suckling mice; conditions: for Viral RNA copies (log scale), Brain / Viral RNA copies (log scale), Kidney / Viral RNA copies (log scale), Lung / Viral RNA copies (log scale), Spinal Cord: one value per mouse
Protocol: as §1, §2
BALB/c mice were maintained and bred in a specific-pathogen-free (SPF) environment at the Laboratory Animal Center of Wuhan Institute of Virology, CAS. Pregnant mice with the same expected delivery date were acclimated in individually ventilated cages under standard conditions within an SPF environment. Food and water were available ad libitum. The mice were anaesthetized by isoflurane inhalation before any operation that may have caused potential discomfort. Before the experiment, suckling mice were randomly allocated into 6 distinct groups, namely, the healthy group, the vehicle group, the groups receiving DBM at 500 mg/kg (mpk) orally quaque die (QD), 200 mpk QD, and 100 mpk QD, and the group receiving VV116 at 25 mpk orally QD. Each group was comprised of 5–6 suckling mice. On the initiation day (Day 0) of the experiment, 5–6-day-old BALB/c suckling mice were intranasally infected with 1 × 10^4 TCID50 of HCoV-OC43. Two hours postinoculation, the mice were orally treated with either a placebo or varying doses of the drugs on the basis of their respective groupings as outlined earlier. This oral treatment regimen was continued for several days. The body weight changes of the mice were monitored daily. On Day 5, all the mice in each group were sacrificed for virological and histopathological analyses. […]

[3] = test system: Huh-7 cells; assay type: cell-based
[4] = test system: HCoV-NL63; test: Antiviral activity in vitro, HCoV-NL63; assay type: cell-based; conditions: Human coronavirus NL63, read-out: EC50 HCoV-NL63

O=C(CC(=O)c1ccccc1)c1ccccc1 [DBM, dibenzoylmethane]
Viral load in tissue (Fig4D) ([1]; Brain, group G3 DIBEN100, individual mice): 2.4E+06 and 2.9E+06 and 1.6E+06 and 1.9E+06 and 2.5E+06 and 2.3E+06
Viral load in tissue (Fig4D) ([1]; Brain, group G4 DIBEN200, individual mice): 2.4E+05 and 2.9E+05 and 1.6E+05 and 2.0E+05 and 2.5E+05
Viral load in tissue (Fig4D) ([1]; Brain, group G5 DIBEN500, individual mice): 5.0E+01 and 0.0E+00 and 3.1E+03
viral titres of the organs and tissues ([1]; DBM 500 mpk): led to a reduction in viral loads
Viral load in tissue (Fig4D) ([1]; Kidney, group G3 DIBEN100, individual mice): 229.9 and 104.0 and 219.4 and 123.5 and 219.8 and 790.8
Viral load in tissue (Fig4D) ([1]; Kidney, group G4 DIBEN200, individual mice): 0.0
Viral load in tissue (Fig4D) ([1]; Kidney, group G5 DIBEN500, individual mice): 84.6 and 0.0
Viral load in tissue (Fig4D) ([1]; Lung, group G3 DIBEN100, individual mice): 0.0 and 160.4 and 76.7 and 2219.2 and 1455.2
Viral load in tissue (Fig4D) ([1]; Lung, group G4 DIBEN200, individual mice): 275.5 and 0.0 and 394.7
Viral load in tissue (Fig4D) ([1]; Lung, group G5 DIBEN500, individual mice): 0.0 and 290.3
Viral load in tissue (Fig4D) ([1]; Spinal Cord, group G3 DIBEN100, individual mice): 1299.4 and 4131.1 and 125.4 and 477.6 and 568.4 and 1615.1
Viral load in tissue (Fig4D) ([1]; Spinal Cord, group G4 DIBEN200, individual mice): 7747.0 and 4670.7 and 4797.6 and 4510.0 and 4954.8
Viral load in tissue (Fig4D) ([1]; Spinal Cord, group G5 DIBEN500, individual mice): 0.0 and 113.9
Viral RNA copies (log scale), Brain ([2]; DBM 100 mpk oral QD, Day 5): 10.75 and 11.25 and 9.46 and 11.43 and 10.91 and 11.34
Viral RNA copies (log scale), Kidney ([2]; DBM 100 mpk oral QD, Day 5): 4.46 and 4.97 and 5.51 and 4.16 and 5.82 and 6.00
Viral RNA copies (log scale), Lung ([2]; DBM 100 mpk oral QD, Day 5): 5.86 and 6.10 and 6.32 and 5.21 and 6.78 and 7.01
Viral RNA copies (log scale), Spinal Cord ([2]; DBM 100 mpk oral QD, Day 5): 6.20 and 7.58 and 5.38 and 6.52 and 6.60 and 6.93
Viral RNA copies (log scale), Brain ([2]; DBM 200 mpk oral QD, Day 5): 11.00 and 7.97 and 8.87 and 10.9 and 11.19
Viral RNA copies (log scale), Kidney ([2]; DBM 200 mpk oral QD, Day 5): 3.29 and 5.31 and 4.03 and 3.52 and 4.72
Viral RNA copies (log scale), Lung ([2]; DBM 200 mpk oral QD, Day 5): 5.84 and 6.05 and 5.32 and 4.74 and 6.24
Viral RNA copies (log scale), Spinal Cord ([2]; DBM 200 mpk oral QD, Day 5): 7.21 and 4.77 and 4.18 and 5.72 and 5.07
weight loss during the experiment ([2]; DBM 500, 200, 100 mpk, VV116 25 mpk): did not experience weight loss
Viral RNA copies (log scale), Brain ([2]; DBM 500 mpk oral QD, Day 5): 7.30 and 7.20 and 10.02 and 9.11
Viral RNA copies (log scale), Kidney ([2]; DBM 500 mpk oral QD, Day 5): 5.15 and 4.76 and 4.30 and 4.17
Viral RNA copies (log scale), Lung ([2]; DBM 500 mpk oral QD, Day 5): 6.62 and 5.77 and 7.8 and 5.49
Viral RNA copies (log scale), Spinal Cord ([2]; DBM 500 mpk oral QD, Day 5): 7.86 and 7.12 and 7.13 and 6.92
reduction of viral RNA copies in organs and tissues compared with the vehicle-treated group ([2]; DBM 500 mpk, Day 5, brain, spinal cord, lungs, kidneys): 1–3 logs
Body weight (Fig4B) ([2]; Diben-100mpk, day 0, individual mice, 100 mg/kg): 106.0 and 99.6 and 102.4 and 92.2 and 88.6 and 111.2
Body weight (Fig4B) ([2]; Diben-100mpk, day 1, individual mice, 100 mg/kg): 104.0 and 113.7 and 124.8 and 125.0 and 120.9 and 107.3
Body weight (Fig4B) ([2]; Diben-100mpk, day 2, individual mice, 100 mg/kg): 129.4 and 142.0 and 134.3 and 116.8 and 125.0 and 145.3
Body weight (Fig4B) ([2]; Diben-100mpk, day 3, individual mice, 100 mg/kg): 151.0 and 158.2 and 143.3 and 162.5 and 135.0 and 139.2
Body weight (Fig4B) ([2]; Diben-100mpk, day 4, individual mice, 100 mg/kg): 155.1 and 164.8 and 182.5 and 163.5 and 153.3 and 179.2
Body weight (Fig4B) ([2]; Diben-100mpk, day 5, individual mice, 100 mg/kg): 154.0 and 147.9 and 188.2 and 194.1
Body weight (Fig4B) ([2]; Diben-200mpk, day 0, individual mice, 200 mg/kg): 111.2 and 88.7 and 105.9 and 107.7 and 103.2 and 83.4
Body weight (Fig4B) ([2]; Diben-200mpk, day 1, individual mice, 200 mg/kg): 125.7 and 104.5 and 114.6 and 120.1 and 114.8 and 89.2
Body weight (Fig4B) ([2]; Diben-200mpk, day 2, individual mice, 200 mg/kg): 114.8 and 130.4 and 137.3 and 125.5 and 125.0 and 98.5
Body weight (Fig4B) ([2]; Diben-200mpk, day 3, individual mice, 200 mg/kg): 132.4 and 107.4 and 150.4 and 128.4 and 109.9 and 143.8
Body weight (Fig4B) ([2]; Diben-200mpk, day 4, individual mice, 200 mg/kg): 124.4 and 149.1 and 155.3 and 166.7 and 150.7 and DIED
Body weight (Fig4B) ([2]; Diben-200mpk, day 5, individual mice, 200 mg/kg): 132.2 and 156.0 and 162.7 and 162.5 and 153.8
Body weight (Fig4B) ([2]; Diben-500mpk, day 0, individual mice, 500 mg/kg): 97.8 (2×) and 95.2 (2×) and 111.0 and 103.1
Body weight (Fig4B) ([2]; Diben-500mpk, day 1, individual mice, 500 mg/kg): 118.9 and 116.3 and 111.0 and 105.7 (2×) and 124.2
Body weight (Fig4B) ([2]; Diben-500mpk, day 2, individual mice, 500 mg/kg): 145.4 and 111.0 and 129.5 (2×) and 97.8 and 116.3
Body weight (Fig4B) ([2]; Diben-500mpk, day 3, individual mice, 500 mg/kg): 118.9 and 169.2 and 132.2 and 108.4 and 102.6 and 148.0
Body weight (Fig4B) ([2]; Diben-500mpk, day 4, individual mice, 500 mg/kg): 150.7 and DIED (2×) and 187.7 and 103.1 and 161.2
Body weight (Fig4B) ([2]; Diben-500mpk, day 5, individual mice, 500 mg/kg): 100.4
viral loads by immunofluorescence staining of organ sections ([2]; HCoV-OC43 nucleocapsid protein): reduced the viral loads
damage caused by viral infection in brain and lung sections (H&E) ([2]; oral DBM): significantly reduced the damage
treated/untreated [3]: 1.279 and 1.276 and 1.31 and 1.204 and 1.484
EC50 [4]: 11.7 µM
